{"source": "patent US20240376074A1", "about": "“NAMPT INHIBITORS AND USES THEREOF” (Remedy Plan, Inc., priority 2021, published 2024)"}
{"target": "T1, NAMPT (Homo sapiens, UniProt P43490)", "T1 construct": "purchased Abcam ab221819", "T1 sequence (P43490 whole entry)": "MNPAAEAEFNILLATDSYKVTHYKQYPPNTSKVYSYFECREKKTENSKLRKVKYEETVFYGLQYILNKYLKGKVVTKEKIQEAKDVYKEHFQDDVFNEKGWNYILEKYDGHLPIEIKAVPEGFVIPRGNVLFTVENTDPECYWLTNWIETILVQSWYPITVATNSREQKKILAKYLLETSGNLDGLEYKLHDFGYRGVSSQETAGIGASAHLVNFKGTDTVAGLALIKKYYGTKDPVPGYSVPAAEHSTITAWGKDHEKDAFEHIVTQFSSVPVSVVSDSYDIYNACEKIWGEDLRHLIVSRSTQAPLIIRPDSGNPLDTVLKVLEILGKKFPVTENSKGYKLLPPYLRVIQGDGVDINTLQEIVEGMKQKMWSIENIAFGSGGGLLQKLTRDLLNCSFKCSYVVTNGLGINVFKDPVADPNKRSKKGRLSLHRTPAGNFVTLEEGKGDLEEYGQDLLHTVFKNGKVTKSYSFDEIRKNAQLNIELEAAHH", "assay": "NAMPT Activity Assay (Abcam #ab221819)", "type": "biochemical", "details": "purified NAMPT, percent inhibition from OD450 nm; compound concentration not given", "experimental": "The NAMPT Activity Assay (Abcam #ab221819) was performed following manufacturers two-step reaction protocol. Briefly, compounds were added to a clear 96-well plate using the HP D300e Digital Dispenser. Purified NAMPT was added to all wells except the No NAMPT controls. Reaction Mix #1 was added to each well and the plate was incubated at 30*C for 1 hr followed by the addition of Reaction Mix #2. Absorbance was measured at OD450 nm using a multimode plate reader. Readings were recorded for 5 minutes and percent inhibition was calculated using: (1-(OD450 nm compound/OD450nm no drug))*100."}
{"smiles": "CC(=O)N(CC1CC1)c1ccc(-c2ccc(C(=O)NCCc3ccncc3)cn2)cc1Cl", "note": "[I-T2308, 6-[4-[Acetyl(cyclopropylmethyl)amino]-3-chloro-phenyl]-N-[2-(4-pyridyl)ethyl]pyridine-3-carboxamide]", "NAMPT Inhibition Code*": "C (C = ≥66% inhibition)"}
{"smiles": "CC(=O)N(CC1CC1)c1ccc(-c2ccc(NC(=O)CC3CCCCC3)cn2)cc1Cl", "note": "[I-T2394, N-[6-[4-[acetyl(cyclopropylmethyl)amino]-3-chloro-phenyl]-3-pyridyl]-2-cyclohexyl-acetamide]", "NAMPT Inhibition Code*": "A (*A = <33% inhibition)"}
{"smiles": "CC(=O)N(CC1CC1)c1ccc(-c2ccc(C(=O)NCC3CCOC3)cn2)cc1Cl", "note": "(centres unmarked) [I-T2115, 6-[4-[Acetyl(cyclopropylmethyl)amino]-3-chloro-phenyl]-N-(tetrahydrofuran-3-ylmethyl) pyridine-3-carboxamide]", "NAMPT Inhibition Code*": "A (*A = <33% inhibition)"}
{"smiles": "CC(=O)N(CC1CC1)c1ccc(-c2ccc(C(=O)NCc3ccsc3)cn2)cc1Cl", "note": "[I-T2149, 6-[4-[Acetyl(cyclopropylmethyl)amino]-3-chloro-phenyl]-N-(3-thienylmethyl)pyridine-3-carboxamide]", "NAMPT Inhibition Code*": "B (B = >33 to <66% inhibition)"}
{"smiles": "CC(=O)N(CC1CC1)c1ccc(-c2ccc(C(=O)NCc3cccs3)cn2)cc1Cl", "note": "[I-T2352, 6-[4-[acetyl(cyclopropylmethyl)amino]-3-chloro-phenyl]-N-(2-thienylmethyl)pyridine-3-carboxamide]", "NAMPT Inhibition Code*": "B (B = >33 to <66% inhibition)"}
{"smiles": "CC(=O)N(CC1CC1)c1ccc(-c2ccc(C(=O)NCC3CCCC34CC4)cn2)cc1Cl", "note": "(centres unmarked) [I-T2343, 6-[4-[acetyl(cyclopropylmethyl)amino]-3-chloro-phenyl]-N-(spiro[2.4]heptan-7-ylmethyl)pyridine-3-carboxamide]", "NAMPT Inhibition Code*": "A (*A = <33% inhibition)"}
{"smiles": "CC(=O)N(CC1CC1)c1ccc(-c2ccc(C(=O)NC3Cc4ccccc4C3)cn2)cc1Cl", "note": "[I-T2152, 6-[4-[Acetyl(cyclopropylmethyl)amino]-3-chloro-phenyl]-N-indan-2-yl-pyridine-3-carboxamide]", "NAMPT Inhibition Code*": "B (B = >33 to <66% inhibition)"}
{"smiles": "CC(=O)N(CC1CC1)c1ccc(-c2ccc(C(=O)NCc3ccc(Br)nc3)cn2)cc1Cl", "note": "[I-T2370, 6-[4-[acetyl(cyclopropylmethyl)amino]-3-chloro-phenyl]-N-[(6-bromo-3-pyridyl)methyl]pyridine-3-carboxamide]", "NAMPT Inhibition Code*": "C (C = ≥66% inhibition)"}
{"smiles": "CC(=O)N(CC1CC1)c1ccc(-c2ccc(C(=O)N3Cc4ccccc4C3)cn2)cc1Cl", "note": "[I-T2270, N-[2-Chloro-4-[5-(isoindoline-2-carbonyl)-2-pyridyl]phenyl]-N-(cyclopropylmethyl)acetamide]", "NAMPT Inhibition Code*": "B (B = >33 to <66% inhibition)"}
{"smiles": "CC(=O)N(CC1CC1)c1ccc(-c2ccc(NC(=O)COc3ccccc3)cn2)cc1Cl", "note": "[I-T2328, N-[6-[4-[acetyl(cyclopropylmethyl)amino]-3-chloro-phenyl]-3-pyridyl]-2-phenoxy-acetamide]", "NAMPT Inhibition Code*": "C (C = ≥66% inhibition)"}
{"smiles": "CC(=O)N(CC1CC1)c1ccc(-c2ccc(C(=O)NCCC3CCCCC3)cn2)cc1Cl", "note": "[I-T2348, 6-[4-[acetyl(cyclopropylmethyl)amino]-3-chloro-phenyl]-N-(2-cyclohexylethyl)pyridine-3-carboxamide]", "NAMPT Inhibition Code*": "C (C = ≥66% inhibition)"}
{"smiles": "CC(=O)N(CC1CC1)c1ccc(-c2ccc(C(=O)NCc3cnccn3)cn2)cc1Cl", "note": "[I-T2154, 6-[4-[Acetyl(cyclopropylmethyl)amino]-3-chloro-phenyl]-N-(pyrazin-2-ylmethyl)pyridine-3-carboxamide]", "NAMPT Inhibition Code*": "A (*A = <33% inhibition)"}
{"smiles": "CC(=O)N(CC1CC1)c1ccc(-c2ccc(C(=O)NCC3CCCN(C)C3)cn2)cc1Cl", "note": "(centres unmarked) [I-T2338, 6-[4-[acetyl(cyclopropylmethyl)amino]-3-chloro-phenyl]-N-[(1-methyl-3-piperidyl)methyl]pyridine-3-carboxamide]", "NAMPT Inhibition Code*": "A (*A = <33% inhibition)"}
{"smiles": "CC(=O)N(CC(F)F)c1ccc(-c2ccc(C(=O)NCCCc3cc[nH]n3)cn2)cc1Cl", "note": "[I-T2287, 6-[4-[Acetyl(2,2-difluoroethyl)amino]-3-chloro-phenyl]-N-[3-(1H-pyrazol-3-yl)propyl]pyridine-3-carboxamide]", "NAMPT Inhibition Code*": "C (C = ≥66% inhibition)"}
{"smiles": "CC(=O)N(CC1CC1)c1ccc(-c2ccc(NC(=O)Cc3ccc(F)cc3)cn2)cc1Cl", "note": "[I-T2390, N-[6-[4-[acetyl(cyclopropylmethyl)amino]-3-chloro-phenyl]-3-pyridyl]-2-(4-fluorophenyl)acetamide]", "NAMPT Inhibition Code*": "B (B = >33 to <66% inhibition)"}
{"smiles": "CC(=O)N(CC1CC1)c1ccc(-c2ccc(C(=O)NCCCc3cn[nH]c3)cn2)cc1C(F)(F)F", "note": "[I-T2304, 6-[4-[Acetyl(cyclopropylmethyl)amino]-3-(trifluoromethyl)phenyl]-N-[3-(1H-pyrazol-4-yl)propyl]pyridine-3-carboxamide]", "NAMPT Inhibition Code*": "C (C = ≥66% inhibition)"}
{"smiles": "CC(=O)N(CC1CC1)c1ccc(-c2ccc(C(=O)NCCCc3cc[nH]n3)cn2)cc1C#N", "note": "[I-T2313, 6-[4-[acetyl(cyclopropylmethyl)amino]-3-cyano-phenyl]-N-[3-(1H-pyrazol-5-yl)propyl]pyridine-3-carboxamide]", "NAMPT Inhibition Code*": "C (C = ≥66% inhibition)"}
{"smiles": "CC(=O)N(CC1COC1)c1ccc(-c2ccc(C(=O)NCc3ccccc3)cn2)cc1Cl", "note": "[I-T2327, 6-[4-[acetyl(oxetan-3-ylmethyl)amino]-3-chloro-phenyl]-N-benzyl-pyridine-3-carboxamide]", "NAMPT Inhibition Code*": "A (*A = <33% inhibition)"}
{"smiles": "CC(=O)N(CC1CC1)c1ccc(-c2ccc(C(=O)NCc3cccc(F)c3)cn2)cc1Cl", "note": "[I-T2341, 6-[4-[acetyl(cyclopropylmethyl)amino]-3-chloro-phenyl]-N-[(3-fluorophenyl)methyl]pyridine-3-carboxamide]", "NAMPT Inhibition Code*": "C (C = ≥66% inhibition)"}
{"smiles": "CC(=O)N(CC1CC1)c1ccc(-c2ccc(C(=O)Nc3cnc4nccn4c3)cn2)cc1Cl", "note": "[I-T2140, 6-[4-[Acetyl(cyclopropylmethyl)amino]-3-chloro-phenyl]-N-imidazo[1,2-a]pyrimidin-6-yl-pyridine-3-carboxamide]", "NAMPT Inhibition Code*": "C (C = ≥66% inhibition)"}
{"smiles": "CC(=O)N(CC1CC1)c1ccc(-c2ccc(C(=O)NCCCc3cn[nH]c3)cn2)cc1Cl", "note": "[I-T2269, 6-[4-[Acetyl(cyclopropylmethyl)amino]-3-chloro-phenyl]-N-[3-(1H-pyrazol-4-yl)propyl]pyridine-3-carboxamide]", "NAMPT Inhibition Code*": "C (C = ≥66% inhibition)"}
{"smiles": "CC(=O)N(CC1CC1)c1ccc(-c2ccc(C(=O)NCCCn3ccnc3)cn2)cc1Cl", "note": "[I-T2128, 6-[4-[Acetyl(cyclopropylmethyl)amino]-3-chloro-phenyl]-N-(3-imidazol-1-ylpropyl)pyridine-3-carboxamide]", "NAMPT Inhibition Code*": "C (C = ≥66% inhibition)"}
{"smiles": "CC(=O)N(CC1CC1)c1ccc(-c2ccc(C(=O)NCCc3cn[nH]c3)cn2)cc1Cl", "note": "[I-T2111, 6-[4-[Acetyl(cyclopropylmethyl)amino]-3-chloro-phenyl]-N-[2-(1H-pyrazol-4-yl)ethyl]pyridine-3-carboxamide]", "NAMPT Inhibition Code*": "C (C = ≥66% inhibition)"}
{"smiles": "CC(=O)N(CC1CC1)c1ccc(-c2ccc(C(=O)NCc3ncco3)cn2)cc1Cl", "note": "[I-T2364, 6-[4-[acetyl(cyclopropylmethyl)amino]-3-chloro-phenyl]-N-(oxazol-2-ylmethyl)pyridine-3-carboxamide]", "NAMPT Inhibition Code*": "A (*A = <33% inhibition)"}
{"smiles": "CC(=O)N(CC1CC1)c1ccc(-c2ccc(C(=O)NCc3ccc[nH]3)cn2)cc1Cl", "note": "[I-T2121, 6-[4-[Acetyl(cyclopropylmethyl)amino]-3-chloro-phenyl]-N-(1H-pyrrol-2-ylmethyl)pyridine-3-carboxamide]", "NAMPT Inhibition Code*": "B (B = >33 to <66% inhibition)"}
{"smiles": "CC(=O)N(CC1CC1)c1ccc(-c2ccc(C(=O)NCCc3cccc(F)c3)cn2)cc1Cl", "note": "[I-T2342, 6-[4-[acetyl(cyclopropylmethyl)amino]-3-chloro-phenyl]-N-[2-(3-fluorophenyl)ethyl]pyridine-3-carboxamide]", "NAMPT Inhibition Code*": "C (C = ≥66% inhibition)"}
{"smiles": "CC(=O)N(CC1CC1)c1ccc(-c2ccc(NC(=O)/C=C/c3ccccc3)cn2)cc1Cl", "note": "[I-T2329, (E)-N-[6-[4-[acetyl(cyclopropylmethyl)amino]-3-chloro-phenyl]-3-pyridyl]-3-phenyl-prop-2-enamide]", "NAMPT Inhibition Code*": "C (C = ≥66% inhibition)"}
{"smiles": "CCOc1ccc(CNC(=O)c2ccc(-c3ccc(N(CC4CC4)C(C)=O)c(Cl)c3)nc2)cn1", "note": "[I-T2373, 6-[4-[acetyl(cyclopropylmethyl)amino]-3-chloro-phenyl]-N-[(6-ethoxy-3-pyridyl)methyl]pyridine-3-carboxamide]", "NAMPT Inhibition Code*": "A (*A = <33% inhibition)"}
{"smiles": "CC(=O)N(CC1CC1)c1ccc(-c2ccc(NC(=O)/C=C/c3cccnc3)cn2)cc1Cl", "note": "[I-T2124, (E)-N-[6-[4-[acetyl(cyclopropylmethyl)amino]-3-chloro-phenyl]-3-pyridyl]-3-(3-pyridyl)prop-2-enamide]", "NAMPT Inhibition Code*": "C (C = ≥66% inhibition)"}
{"smiles": "CC(=O)N(CC1CC1)c1ccc(-c2ccc(C(=O)NCCc3ccc(C)nc3)cn2)cc1Cl", "note": "[I-T2309, 6-[4-[Acetyl(cyclopropylmethyl)amino]-3-chloro-phenyl]-N-[2-(6-methyl-3-pyridyl)ethyl]pyridine-3-carboxamide]", "NAMPT Inhibition Code*": "B (B = >33 to <66% inhibition)"}
{"smiles": "CC(=O)N(CC(F)F)c1ccc(-c2ccc(NC(=O)COc3cccnc3)cn2)cc1Cl", "note": "[I-T2291, N-[6-[4-[acetyl(2,2-difluoroethyl)amino]-3-chloro-phenyl]-3-pyridyl]-2-(3-pyridyloxy)acetamide]", "NAMPT Inhibition Code*": "C (C = ≥66% inhibition)"}
{"smiles": "CC(=O)N(CC1CC1)c1ccc(-c2ccc(C(=O)NCc3ccc(C#N)nc3)cn2)cc1Cl", "note": "[I-T2371, 6-[4-[acetyl(cyclopropylmethyl)amino]-3-chloro-phenyl]-N-[(6-cyano-3-pyridyl)methyl]pyridine-3-carboxamide]", "NAMPT Inhibition Code*": "C (C = ≥66% inhibition)"}
